For orientation: IC50 means the concentration that inhibits the measured activity by half.

Molecules are shown by their SMILES.

For the first series, the target named is T1, DPP-IV (Homo sapiens, UniProt P27487).
T1 construct: an extract of human colon carcinoma cell line Caco-2 is used as the DPP IV source; endogenous in cells; host or cells: Caco-2 (human colon carcinoma), differentiated to induce DPP-IV expression; Nonidet-P40 solubilised extract
T1 sequence (P27487 whole entry): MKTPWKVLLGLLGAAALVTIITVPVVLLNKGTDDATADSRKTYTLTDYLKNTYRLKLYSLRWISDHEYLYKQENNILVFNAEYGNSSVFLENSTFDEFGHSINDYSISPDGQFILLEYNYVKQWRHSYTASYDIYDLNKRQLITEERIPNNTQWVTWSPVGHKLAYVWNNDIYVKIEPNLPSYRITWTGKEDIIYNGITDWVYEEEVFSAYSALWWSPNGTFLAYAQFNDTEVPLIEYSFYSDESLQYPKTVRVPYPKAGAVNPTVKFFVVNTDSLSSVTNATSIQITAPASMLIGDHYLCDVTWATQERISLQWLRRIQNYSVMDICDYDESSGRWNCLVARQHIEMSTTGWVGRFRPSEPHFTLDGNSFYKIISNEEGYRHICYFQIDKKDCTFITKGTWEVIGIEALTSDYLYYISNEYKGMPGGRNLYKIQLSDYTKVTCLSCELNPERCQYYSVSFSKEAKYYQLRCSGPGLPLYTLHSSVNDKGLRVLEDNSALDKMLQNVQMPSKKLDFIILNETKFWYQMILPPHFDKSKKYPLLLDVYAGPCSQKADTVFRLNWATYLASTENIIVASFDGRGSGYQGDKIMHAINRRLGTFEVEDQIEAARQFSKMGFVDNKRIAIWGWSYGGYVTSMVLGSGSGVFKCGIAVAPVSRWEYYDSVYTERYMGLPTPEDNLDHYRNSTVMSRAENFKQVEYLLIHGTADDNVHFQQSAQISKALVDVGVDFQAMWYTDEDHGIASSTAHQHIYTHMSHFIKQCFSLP
The series is described as follows: DPP-IV assay with Caco-2 cell extract as DPP IV source, AFC substrate, fluorescence. The note with it: extract of human colon carcinoma cell line Caco-2; substrate 100 μM; 60 minutes at ambient temperature; read-out: DPP IV inhibition IC50. Type of series: biochemical. On the procedure:
The cell extract was obtained from cells solubilised in a buffer (10 mM Tris HCl, 0.15 M NaCl, 0.04 t.i.u. aprotinin, 0.5% Nonidet-P40, pH 8.0) by centrifuging at 35,000 g for 30 minutes at 4° C. (to remove cell debris).
The DPP-IV assay was carried out as follows:
50 μl substrate solution (AFC; AFC is amido-4-trifluoromethylcoumarin), final concentration 100 μM, were placed in black microtitre plates. 20 μl of assay buffer (final concentrations 50 mM Tris HCl pH 7.8, 50 mM NaCl, 1% DMSO) was pipetted in. The reaction was started by adding 30 μl of solubilised Caco-2 protein (final concentration 0.14 μg of protein per well). The test substances to be investigated were typically added prediluted in 20 μl, and the volume of assay buffer was then reduced accordingly. The reaction was carried out at ambient temperature, incubating for 60 minutes. […] Blank readings (corresponding to 0% activity) were obtained in mixtures without any Caco-2 protein (volume replaced by assay buffer), control values (corresponding to 100% activity) were obtained in mixtures with no substance added.
As to `CC#CCn1c(N2CCCC(N)C2)nc2cnn(Cc3nc4ccccc4c4ccccc34)c(=O)c21` (centres unmarked) [1(1), 2-(3-amino-piperidin-1-yl)-3-(2-butyn-1-yl)-5-[(phenanthridin-6-yl)methyl]-3,5-dihydro-imidazo[4,5-d]pyridazin-4-one], the 50% inhibitory concentration (IC50) came out at 17 nM.

As for `CC#CCn1c(N2CCCC(N)C2)nc2cnn(Cc3cc4ccccc4c4ccccc34)c(=O)c21` (centres unmarked) [1(2), 2-(3-amino-piperidin-1-yl)-3-(2-butyn-1-yl)-5-[(phenanthren-9-yl)methyl]-3,5-dihydro-imidazo[4,5-d]pyridazin-4-one], the IC50 amounted to 58 nM.

In the case of `CC#CCn1c(N2CCC[C@@H](N)C2)nc2c(C)nn(Cc3nc4ccccc4c4ccccc34)c(=O)c21` [1(3), 2-((R)-3-amino-piperidin-1-yl)-3-(2-butyn-1-yl)-5-[(phenanthridin-6-yl)methyl]-7-methyl-3,5-dihydro-imidazo[4,5-d]pyridazin-4-one x trifluoroacetic acid], the IC50 is 8 nM.

Turning to `CC#CCn1c(N2CCC[C@@H](N)C2)nc2c(C)nn(CC3=Nc4ccccc4Oc4ccccc43)c(=O)c21` [1(4), 2-((R)-3-amino-piperidin-1-yl)-3-(2-butyn-1-yl)-5-[(dibenzo[b,f][1,4]oxazepin-11-yl)methyl]-7-methyl-3,5-dihydro-imidazo[4,5-d]pyridazin-4-one], the 50% inhibitory concentration (IC50) came out at 9 nM.

Take `CC#CCn1c(N2CCC[C@@H](N)C2)nc2cnn(Cc3nc4ccc5ccccc5c4o3)c(=O)c21` [1(7), 2-((R)-3-amino-piperidin-1-yl)-3-(2-butyn-1-yl)-5-[(naphtho[2,1-d]oxazol-2-yl)methyl]-3,5-dihydro-imidazo[4,5-d]pyridazin-4-one]: the half-maximal inhibitory concentration (IC50) stood at 3 nM.

For the compound `CC#CCn1c(N2CCC[C@@H](N)C2)nc2cnn(Cc3nc4c(ccc5ccccc54)o3)c(=O)c21` [1(8), 2-((R)-3-amino-piperidin-1-yl)-3-(2-butyn-1-yl)-5-[(naphtho[1,2-d]oxazol-2-yl)methyl]-3,5-dihydro-imidazo[4,5-d]pyridazin-4-one], the concentration for half-maximal inhibition (IC50) was 7 nM.

With `CC#CCn1c(N2CCC[C@@H](N)C2)nc2cnn(Cc3nc4ccccc4c(=O)[nH]3)c(=O)c21` [1(9), 2-((R)-3-amino-piperidin-1-yl)-3-(2-butyn-1-yl)-5-[(4-oxo-3,4-dihydro-quinazolin-2-yl)methyl]-3,5-dihydro-imidazo[4,5-d]pyridazin-4-one], the concentration for half-maximal inhibition (IC50) was found to be 3 nM.

The test system of another series is rats. The series can be described thus: Tolerability after oral administration to rats (behaviour). Type of series: in vivo. The following applies: 10 mg/kg.
As for `CC#CCn1c(N2CCCC(N)C2)nc2cnn(CC3=Nc4ccccc4Oc4ccccc43)c(=O)c21` (centres unmarked) [Example 1, 2-(3-amino-piperidin-1-yl)-3-(2-butyn-1-yl)-5-[(dibenzo[b,f][1,4]oxazepin-11-yl)methyl]-3,5-dihydro-imidazo[4,5-d]pyridazin-4-one], the “changes in the animals' behaviour” value was “no changes in the animals' behaviour could be detected”.

(Values after patent US8034941B2, “Imidazopyridazinone and imidazopyridone derivatives, the preparation thereof and their use as pharmaceutical compositions” (Boehringer Ingelheim International GmbH, priority 2003, dated 2011).)
